PubChem BioAssay (NCI)
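1) Cells in 96-well plates. 2) Compound, 48 h, 5 concentrations. 3) Linear interpolation between surrounding doses. 4) Unreached endpoint = highest concentration. At the TGI there is no net growth.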

Experiments:
Assay in all cases: DTP human tumour cell line panel, 48 h
K-562 leukemia = system: K-562 leukemia
SF-539 CNS = system: SF-539 CNS
786-0 renal = system: 786-0 renal
SN12C renal = system: SN12C renal
A549 NSCLC = system: A549 NSCLC
SF-295 CNS = system: SF-295 CNS
HOP-18 NSCLC = system: HOP-18 NSCLC
M14 melanoma = system: M14 melanoma
U251 CNS = system: U251 CNS
UACC-62 melanoma = system: UACC-62 melanoma
KM12 colon = system: KM12 colon
SNB-19 CNS = system: SNB-19 CNS
NCI-H226 lung = system: NCI-H226 lung
LXFL 529 NSCLC = system: LXFL 529 NSCLC
OVCAR-5 ovarian = system: OVCAR-5 ovarian
HOP-62 NSCLC = system: HOP-62 NSCLC
KM20L2 colon = system: KM20L2 colon
CCRF-CEM leukemia = system: CCRF-CEM leukemia
HCC-2998 colon = system: HCC-2998 colon
TK-10 renal = system: TK-10 renal
NCI-H460 lung = system: NCI-H460 lung
NCI-H23 lung = system: NCI-H23 lung
MOLT-4 leukemia = system: MOLT-4 leukemia
SK-MEL-2 melanoma = system: SK-MEL-2 melanoma
HCT-15 colon = system: HCT-15 colon
MALME-3M melanoma = system: MALME-3M melanoma
OVCAR-8 ovarian = system: OVCAR-8 ovarian
SNB-78 CNS = system: SNB-78 CNS
OVCAR-3 ovarian = system: OVCAR-3 ovarian
RPMI-8226 leukemia = system: RPMI-8226 leukemia
UO-31 renal = system: UO-31 renal
SK-OV-3 ovarian = system: SK-OV-3 ovarian
DMS 114 small cell lung = system: DMS 114 small cell lung
HL-60(TB) leukemia = system: HL-60(TB) leukemia
M19-MEL melanoma = system: M19-MEL melanoma
RXF 393 renal = system: RXF 393 renal
COLO 205 colon = system: COLO 205 colon
EKVX NSCLC = system: EKVX NSCLC
NCI-H522 lung = system: NCI-H522 lung
LOX IMVI melanoma = system: LOX IMVI melanoma
IGROV1 ovarian = system: IGROV1 ovarian
SK-MEL-5 melanoma = system: SK-MEL-5 melanoma
SF-268 CNS = system: SF-268 CNS
A498 renal = system: A498 renal
SW-620 colon = system: SW-620 colon
SNB-75 CNS = system: SNB-75 CNS
ACHN renal = system: ACHN renal
UACC-257 melanoma = system: UACC-257 melanoma
SK-MEL-28 melanoma = system: SK-MEL-28 melanoma
DLD-1 colon = system: DLD-1 colon
SR leukemia = system: SR leukemia
CAKI-1 renal = system: CAKI-1 renal
HT29 colon = system: HT29 colon
HCT-116 colon = system: HCT-116 colon
RXF-631 renal = system: RXF-631 renal
HOP-92 NSCLC = system: HOP-92 NSCLC
OVCAR-4 ovarian = system: OVCAR-4 ovarian
DMS 273 small cell lung = system: DMS 273 small cell lung

Measured: TGI

N=C(N)Cn1cnc2ccccc21
> 100 µM: K-562 leukemia | SF-539 CNS | 786-0 renal | SN12C renal | A549 NSCLC | SF-295 CNS | HOP-18 NSCLC | M14 melanoma | U251 CNS | UACC-62 melanoma | KM12 colon | SNB-19 CNS | NCI-H226 lung | LXFL 529 NSCLC | OVCAR-5 ovarian | HOP-62 NSCLC | KM20L2 colon | CCRF-CEM leukemia | HCC-2998 colon | TK-10 renal | NCI-H460 lung | NCI-H23 lung | MOLT-4 leukemia | SK-MEL-2 melanoma | HCT-15 colon | MALME-3M melanoma | OVCAR-8 ovarian | SNB-78 CNS | OVCAR-3 ovarian | RPMI-8226 leukemia | UO-31 renal | SK-OV-3 ovarian | DMS 114 small cell lung | HL-60(TB) leukemia | M19-MEL melanoma | RXF 393 renal | COLO 205 colon | EKVX NSCLC | NCI-H522 lung | LOX IMVI melanoma | IGROV1 ovarian | SK-MEL-5 melanoma | SF-268 CNS | A498 renal | SW-620 colon | SNB-75 CNS | ACHN renal | UACC-257 melanoma | SK-MEL-28 melanoma

NC(=O)C12CCC1C1CCCCC12N1CCOCC1 (stereo not drawn)
> 100 µM: K-562 leukemia | SF-539 CNS | 786-0 renal | SN12C renal | A549 NSCLC | SF-295 CNS | HOP-18 NSCLC | M14 melanoma | U251 CNS | UACC-62 melanoma | DLD-1 colon | KM12 colon | SNB-19 CNS | LXFL 529 NSCLC | OVCAR-5 ovarian | HOP-62 NSCLC | KM20L2 colon | CCRF-CEM leukemia | HCC-2998 colon | TK-10 renal | NCI-H460 lung | NCI-H23 lung | SR leukemia | MOLT-4 leukemia | SK-MEL-2 melanoma | HCT-15 colon | MALME-3M melanoma | CAKI-1 renal | OVCAR-8 ovarian | SNB-78 CNS | HT29 colon | OVCAR-3 ovarian | RPMI-8226 leukemia | UO-31 renal | SK-OV-3 ovarian | HL-60(TB) leukemia | HCT-116 colon | M19-MEL melanoma | RXF 393 renal | EKVX NSCLC | NCI-H522 lung | LOX IMVI melanoma | IGROV1 ovarian | RXF-631 renal | SK-MEL-5 melanoma | SF-268 CNS | A498 renal | SW-620 colon | HOP-92 NSCLC | OVCAR-4 ovarian | SNB-75 CNS | ACHN renal | SK-MEL-28 melanoma

NC(=O)N/N=C1/CCCC/C1=C\c1ccccc1
> 100 µM: K-562 leukemia | SF-539 CNS | 786-0 renal | SN12C renal | A549 NSCLC | SF-295 CNS | HOP-18 NSCLC | M14 melanoma | U251 CNS | UACC-62 melanoma | DLD-1 colon | KM12 colon | NCI-H226 lung | LXFL 529 NSCLC | OVCAR-5 ovarian | HOP-62 NSCLC | KM20L2 colon | CCRF-CEM leukemia | HCC-2998 colon | TK-10 renal | NCI-H460 lung | NCI-H23 lung | SR leukemia | MOLT-4 leukemia | SK-MEL-2 melanoma | HCT-15 colon | MALME-3M melanoma | CAKI-1 renal | OVCAR-8 ovarian | SNB-78 CNS | HT29 colon | OVCAR-3 ovarian | RPMI-8226 leukemia | UO-31 renal | SK-OV-3 ovarian | DMS 114 small cell lung | HL-60(TB) leukemia | HCT-116 colon | M19-MEL melanoma | RXF 393 renal | DMS 273 small cell lung | COLO 205 colon | EKVX NSCLC | NCI-H522 lung | LOX IMVI melanoma | IGROV1 ovarian | RXF-631 renal | SK-MEL-5 melanoma | SF-268 CNS | A498 renal | SW-620 colon | HOP-92 NSCLC | OVCAR-4 ovarian | SNB-75 CNS | ACHN renal | UACC-257 melanoma | SK-MEL-28 melanoma

[N-]=[N+]=NC(c1cn(C2CC(O)C(CO)O2)c(=O)[nH]c1=O)C(I)I (stereo not drawn)
> 100 µM: K-562 leukemia | SF-539 CNS | 786-0 renal | SN12C renal | A549 NSCLC | SF-295 CNS | HOP-18 NSCLC | M14 melanoma | U251 CNS | UACC-62 melanoma | DLD-1 colon | KM12 colon | SNB-19 CNS | NCI-H226 lung | LXFL 529 NSCLC | OVCAR-5 ovarian | HOP-62 NSCLC | KM20L2 colon | CCRF-CEM leukemia | HCC-2998 colon | TK-10 renal | NCI-H460 lung | NCI-H23 lung | SR leukemia | MOLT-4 leukemia | SK-MEL-2 melanoma | MALME-3M melanoma | CAKI-1 renal | OVCAR-8 ovarian | SNB-78 CNS | HT29 colon | OVCAR-3 ovarian | RPMI-8226 leukemia | UO-31 renal | SK-OV-3 ovarian | DMS 114 small cell lung | HL-60(TB) leukemia | HCT-116 colon | M19-MEL melanoma | RXF 393 renal | DMS 273 small cell lung | COLO 205 colon | EKVX NSCLC | LOX IMVI melanoma | IGROV1 ovarian | SK-MEL-5 melanoma | SF-268 CNS | A498 renal | SW-620 colon | HOP-92 NSCLC | OVCAR-4 ovarian | ACHN renal | UACC-257 melanoma | SK-MEL-28 melanoma
